Experiments:
[1] = target: T1, WEE1 (Homo sapiens, UniProt P30291+Q96SW2); assay: Western-blot assay of substrate protein degradation in hPBMCs, WEE1; type: cell-based; conditions: 24 hours of compound treatment
T1 construct: endogenous in cells; host or cells: hPBMCs (Milecell Biotechnologies)

[2] = target: T2, IKZF1 (Homo sapiens, UniProt Q13422+Q96SW2); assay: Western-blot assay of substrate protein degradation in hPBMCs, IKZF1; type: cell-based; conditions: 24 hours of compound treatment
T2 construct: endogenous in cells; host or cells: hPBMCs (Milecell Biotechnologies)
T2 sequence (Q13422 whole entry): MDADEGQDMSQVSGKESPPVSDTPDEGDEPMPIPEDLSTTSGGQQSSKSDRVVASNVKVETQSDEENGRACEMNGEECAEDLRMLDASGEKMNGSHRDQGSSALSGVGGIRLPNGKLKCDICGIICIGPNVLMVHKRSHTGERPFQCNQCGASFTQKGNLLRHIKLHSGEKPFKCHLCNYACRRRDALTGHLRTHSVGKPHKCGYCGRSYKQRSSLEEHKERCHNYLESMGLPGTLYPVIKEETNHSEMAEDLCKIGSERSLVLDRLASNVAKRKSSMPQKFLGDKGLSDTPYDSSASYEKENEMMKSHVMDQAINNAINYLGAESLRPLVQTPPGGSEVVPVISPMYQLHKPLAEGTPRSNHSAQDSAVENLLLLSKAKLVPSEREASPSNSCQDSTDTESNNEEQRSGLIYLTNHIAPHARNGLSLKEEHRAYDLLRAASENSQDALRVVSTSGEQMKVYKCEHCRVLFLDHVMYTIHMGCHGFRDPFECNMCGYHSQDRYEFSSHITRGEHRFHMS
T2 sequence (Q96SW2 whole entry): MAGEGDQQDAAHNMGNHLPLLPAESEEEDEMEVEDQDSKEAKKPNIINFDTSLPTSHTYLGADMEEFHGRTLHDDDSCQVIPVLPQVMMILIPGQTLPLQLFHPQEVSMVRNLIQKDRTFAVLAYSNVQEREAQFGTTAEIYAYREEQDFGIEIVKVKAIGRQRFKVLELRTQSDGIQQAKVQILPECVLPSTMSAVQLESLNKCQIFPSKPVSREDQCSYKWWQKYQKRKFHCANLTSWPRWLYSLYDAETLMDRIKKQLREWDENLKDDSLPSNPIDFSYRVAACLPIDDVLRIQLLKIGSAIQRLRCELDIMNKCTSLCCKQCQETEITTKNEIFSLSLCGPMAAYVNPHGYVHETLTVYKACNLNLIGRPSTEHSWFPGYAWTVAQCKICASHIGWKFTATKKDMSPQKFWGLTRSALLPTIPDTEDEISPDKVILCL
T2 sequence (Q16531 whole entry partner): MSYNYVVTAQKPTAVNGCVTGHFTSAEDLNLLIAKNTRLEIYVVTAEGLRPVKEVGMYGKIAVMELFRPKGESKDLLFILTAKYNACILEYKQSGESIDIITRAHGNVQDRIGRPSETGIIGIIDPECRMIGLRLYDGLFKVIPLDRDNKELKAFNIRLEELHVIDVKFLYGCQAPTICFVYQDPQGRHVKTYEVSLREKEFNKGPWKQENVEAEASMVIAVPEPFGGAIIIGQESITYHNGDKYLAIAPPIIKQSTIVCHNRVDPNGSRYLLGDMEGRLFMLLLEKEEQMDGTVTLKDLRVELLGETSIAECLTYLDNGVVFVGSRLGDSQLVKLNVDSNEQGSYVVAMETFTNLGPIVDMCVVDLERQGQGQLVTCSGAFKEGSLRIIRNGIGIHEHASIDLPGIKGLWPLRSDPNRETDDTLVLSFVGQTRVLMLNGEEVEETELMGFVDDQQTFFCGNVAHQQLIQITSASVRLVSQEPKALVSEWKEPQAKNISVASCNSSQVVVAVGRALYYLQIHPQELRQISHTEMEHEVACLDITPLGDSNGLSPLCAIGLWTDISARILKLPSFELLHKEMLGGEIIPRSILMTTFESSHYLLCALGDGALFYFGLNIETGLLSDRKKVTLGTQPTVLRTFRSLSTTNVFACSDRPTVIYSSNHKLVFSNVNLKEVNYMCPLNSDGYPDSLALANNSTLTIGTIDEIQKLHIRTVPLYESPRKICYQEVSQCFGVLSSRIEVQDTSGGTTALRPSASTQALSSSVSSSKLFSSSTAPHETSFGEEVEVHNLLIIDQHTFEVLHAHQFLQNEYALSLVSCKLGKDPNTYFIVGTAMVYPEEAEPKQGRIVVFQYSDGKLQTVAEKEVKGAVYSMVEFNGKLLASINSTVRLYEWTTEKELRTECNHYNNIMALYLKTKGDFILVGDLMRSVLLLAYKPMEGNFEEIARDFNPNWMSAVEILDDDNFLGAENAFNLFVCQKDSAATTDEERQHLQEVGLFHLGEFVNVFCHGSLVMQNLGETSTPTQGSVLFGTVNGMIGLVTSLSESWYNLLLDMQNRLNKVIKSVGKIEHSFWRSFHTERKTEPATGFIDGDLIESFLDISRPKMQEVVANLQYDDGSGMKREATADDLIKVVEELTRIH

[3] = target: T3, IKZF2 (Homo sapiens, UniProt Q96SW2+Q9UKS7); assay: Western-blot assay of substrate protein degradation in hPBMCs, IKZF2; type: cell-based; conditions: 24 hours of compound treatment
T3 construct: endogenous in cells; host or cells: hPBMCs (Milecell Biotechnologies)

[4] = target: T4, IKZF3 (Homo sapiens, UniProt Q96SW2+Q9UKT9); assay: Western-blot assay of substrate protein degradation in hPBMCs, IKZF3; type: cell-based; conditions: 24 hours of compound treatment
T4 construct: endogenous in cells; host or cells: hPBMCs (Milecell Biotechnologies)
T4 sequence (Q9UKT9 whole entry): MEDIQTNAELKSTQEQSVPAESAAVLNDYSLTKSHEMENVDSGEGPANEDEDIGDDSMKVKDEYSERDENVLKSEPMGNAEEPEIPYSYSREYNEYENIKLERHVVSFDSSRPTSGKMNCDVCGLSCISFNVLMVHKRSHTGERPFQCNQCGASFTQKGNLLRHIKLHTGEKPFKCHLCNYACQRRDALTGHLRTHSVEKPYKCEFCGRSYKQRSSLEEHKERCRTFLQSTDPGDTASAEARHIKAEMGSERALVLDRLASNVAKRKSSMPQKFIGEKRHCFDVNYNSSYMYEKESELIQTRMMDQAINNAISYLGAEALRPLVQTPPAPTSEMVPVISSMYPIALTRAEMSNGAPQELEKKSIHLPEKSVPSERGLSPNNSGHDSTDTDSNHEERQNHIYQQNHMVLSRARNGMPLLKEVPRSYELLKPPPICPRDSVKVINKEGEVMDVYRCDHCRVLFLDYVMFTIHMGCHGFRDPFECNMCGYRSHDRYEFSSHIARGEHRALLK
T4 sequence (Q96SW2 whole entry): as the sequence (Q96SW2 whole entry) above
T4 sequence (Q16531 whole entry partner): as the sequence (Q16531 whole entry partner) above

[5] = target: T5, CK1α (Homo sapiens, UniProt P48729+Q96SW2); assay: Western-blot assay of substrate protein degradation in hPBMCs, CK1α; type: cell-based; conditions: 24 hours of compound treatment
T5 construct: endogenous in cells; host or cells: hPBMCs (Milecell Biotechnologies)
T5 sequence (P48729 whole entry): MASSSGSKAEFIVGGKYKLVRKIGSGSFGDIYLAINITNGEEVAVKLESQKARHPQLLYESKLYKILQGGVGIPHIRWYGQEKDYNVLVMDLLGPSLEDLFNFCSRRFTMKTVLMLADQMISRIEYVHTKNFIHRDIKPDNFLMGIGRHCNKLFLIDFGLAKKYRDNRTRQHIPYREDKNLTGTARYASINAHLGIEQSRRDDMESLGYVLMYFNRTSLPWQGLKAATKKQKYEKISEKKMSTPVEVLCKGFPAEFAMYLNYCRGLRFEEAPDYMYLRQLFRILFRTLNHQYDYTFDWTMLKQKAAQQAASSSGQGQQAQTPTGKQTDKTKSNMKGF
T5 sequence (Q96SW2 whole entry): as the sequence (Q96SW2 whole entry) above
T5 sequence (Q16531 whole entry partner): as the sequence (Q16531 whole entry partner) above

[6] = target: T6, GSPT1 (Homo sapiens, UniProt P15170+Q96SW2); assay: Western-blot assay of substrate protein degradation in hPBMCs, GSPT1; type: cell-based; conditions: 24 hours of compound treatment
T6 construct: endogenous in cells; host or cells: hPBMCs (Milecell Biotechnologies)
T6 sequence (P15170 whole entry): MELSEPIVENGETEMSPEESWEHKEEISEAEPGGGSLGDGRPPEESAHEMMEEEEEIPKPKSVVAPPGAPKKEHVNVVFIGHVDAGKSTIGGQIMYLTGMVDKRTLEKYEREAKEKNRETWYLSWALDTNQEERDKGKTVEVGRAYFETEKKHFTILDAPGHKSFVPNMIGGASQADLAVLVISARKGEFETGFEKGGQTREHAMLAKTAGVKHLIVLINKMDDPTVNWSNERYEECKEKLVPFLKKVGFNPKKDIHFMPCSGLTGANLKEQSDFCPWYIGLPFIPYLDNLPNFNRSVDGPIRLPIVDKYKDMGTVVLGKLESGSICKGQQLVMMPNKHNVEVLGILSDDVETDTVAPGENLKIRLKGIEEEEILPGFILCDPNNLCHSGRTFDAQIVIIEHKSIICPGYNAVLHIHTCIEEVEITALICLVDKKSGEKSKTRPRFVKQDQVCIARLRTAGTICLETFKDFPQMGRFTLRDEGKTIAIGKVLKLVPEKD
T6 sequence (Q96SW2 whole entry): as the sequence (Q96SW2 whole entry) above
T6 sequence (Q16531 whole entry partner): as the sequence (Q16531 whole entry partner) above

[7] = target: T7, human Cereblon WT GST-tagged protein (Homo sapiens, UniProt Q96SW2); assay: CRBN-binding affinity by HTRF (CEREBLON BINDING kit); conditions: HTRF inhibitory activity, CEREBLON BINDING kit; read-out: HTRF IC50
T7 construct: purchased CISBIO 64BDCRBNPEH
T7 sequence (Q96SW2 whole entry): as the sequence (Q96SW2 whole entry) above

[8] = test system: Human acute T lymphocytic leukemia cells (Molt-4); assay: Tumor cell proliferation inhibition (CellTiter-Meiluncell Luminescent Cell Viability Assay), Molt-4; conditions: MOLT-4, 96 h, read-out: inhibitory activity (IC50, nM) against tumor cells proliferation, Molt 4
[9] = test system: NCI-H1975; assay: Tumor cell proliferation inhibition (CellTiter-Meiluncell Luminescent Cell Viability Assay), NCI-H1975; conditions: Homo sapiens, NCI-H1975, 96 h, read-out: inhibitory activity (IC50, nM) against tumor cells proliferation, H1975
[10] = test system: Human breast cancer cells (MDA-MB-231); assay: Tumor cell proliferation inhibition (CellTiter-Meiluncell Luminescent Cell Viability Assay), MDA-MB-231; conditions: for IC50: MDA-MB-231, 96 h, read-out: inhibitory activity (IC50, nM) against tumor cells proliferation, MDA-MB-231; for inhibition at 0.01 µM: MDA-MB-231, read-out: Inhibition rate (%) at 10 nM; for inhibition at 0.5 µM: MDA-MB-231, read-out: Inhibition rate (%) at 500 nM
Experimental: The tumor cells used herein were cultured in a cell culture medium listed in table 2 at 37°C in an incubator with 5% CO2. Prior to experimentation, all cell lines used were correctly identified by STR profiling, and tested negative for mycoplasma contamination using a mycoplasma detection kit through routine screenings.
On the following day, the test compounds of the present disclosure were subjected to serial dilution. […] Subsequently, 0.5 µL of the test compound dilution was transferred into the 96-well plate containing the cells, with each well containing 100 µL of cell culture medium. […] Into the 96-well plate, the diluted test compounds and corresponding detection reagents were added, resulting in final test compound concentrations of 500 nM and 10 nM, respectively. The experimental procedure is described below using the diluted 2 µM test compound as an example.
After the cells were treated with the compounds of the present disclosure for a specified period (the treatment durations were shown in Table 3), the cell viability assay reagent was added to the culture medium according to the kit's instructions to determine cell viability. […] All controls were treated using the same procedure as the compounds of the present disclosure. The growth inhibition curves for the compounds of the present disclosure were plotted using Prism GraphPad software, and the IC50 values were calculated therefrom.

[11] = compounds tested at 50 nM and 500 nM (concentration of the table not stated)
[12] = 50 nM and 500 nM tested (concentration behind the class not stated)

T1 sequence (P30291 whole entry): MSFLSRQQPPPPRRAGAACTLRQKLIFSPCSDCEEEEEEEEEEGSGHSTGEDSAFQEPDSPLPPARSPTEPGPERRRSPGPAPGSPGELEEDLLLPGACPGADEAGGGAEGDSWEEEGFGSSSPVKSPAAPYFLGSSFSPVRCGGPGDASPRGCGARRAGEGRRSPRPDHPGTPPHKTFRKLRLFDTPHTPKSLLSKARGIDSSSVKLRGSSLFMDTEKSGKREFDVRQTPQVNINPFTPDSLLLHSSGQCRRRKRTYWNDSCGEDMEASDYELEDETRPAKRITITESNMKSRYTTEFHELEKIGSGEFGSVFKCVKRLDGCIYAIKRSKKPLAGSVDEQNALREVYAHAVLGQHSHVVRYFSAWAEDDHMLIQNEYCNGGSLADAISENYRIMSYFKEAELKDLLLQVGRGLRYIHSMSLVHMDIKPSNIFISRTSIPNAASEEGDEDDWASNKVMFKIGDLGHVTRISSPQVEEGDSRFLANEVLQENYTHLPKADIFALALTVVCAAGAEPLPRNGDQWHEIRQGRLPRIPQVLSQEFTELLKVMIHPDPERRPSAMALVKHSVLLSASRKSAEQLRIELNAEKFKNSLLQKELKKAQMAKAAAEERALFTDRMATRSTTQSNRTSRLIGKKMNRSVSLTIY
T1 sequence (Q96SW2 whole entry): as the sequence (Q96SW2 whole entry) above
T1 sequence (Q16531 whole entry partner): as the sequence (Q16531 whole entry partner) above

| Compound | Weel substrate protein remaining % [1, 11] | IKZF 1 substrate protein remaining % [2, 11] | IKZF2 substrate protein remaining % [3, 11] | IKZF3 substrate protein remaining % [4, 11] | CK1a substrate protein remaining % [5, 11] | GSPT1 substrate protein remaining % [6, 11] | IC50 [7] | IC50 [8] | IC50 [9] | IC50 [10] | inhibition at 0.01 µM [10] | inhibition at 0.5 µM [10] | Weel substrate protein remaining % [1, 12] | IKZF 1 substrate protein remaining % [2, 12] | IKZF2 substrate protein remaining % [3, 12] | IKZF3 substrate protein remaining % [4, 12] | CK1a substrate protein remaining % [5, 12] | GSPT1 substrate protein remaining % [6, 12] |
| --- | --- | --- | --- | --- | --- | --- | --- | --- | --- | --- | --- | --- | --- | --- | --- | --- | --- | --- |
| O=C1CCC(N2Cc3cc(CN4CCC(c5c[nH]c6ncccc56)CC4)ccc3C2=O)C(=O)N1 (stereo not drawn) [GT-04603, 3-(5-((4-(1H-pyrrolo[2,3-b]pyridin-3-yl)piperidin-1-yl)methyl)-1-oxoisoindolin-2-yl)piperidine-2,6-dione] | A (0% ≤ substrate protein remaining % ≤ 80%) | A (0% ≤ substrate protein remaining % ≤ 80%) | A (0% ≤ substrate protein remaining % ≤ 80%) | A (0% ≤ substrate protein remaining % ≤ 80%) | A (0% ≤ substrate protein remaining % ≤ 80%) | A (0% ≤ substrate protein remaining % ≤ 80%) | 500 to 1000 nM | 10 to 50 nM | 100 to 500 nM | 100 to 500 nM | – | – | – | – | – | – | – | – |
| O=C1CCC(N2Cc3cc(CN4CCC(N5CCCc6cc(F)ccc65)CC4)ccc3C2=O)C(=O)N1 (stereo not drawn) [GT-04691, 3-(5-((4-(6-fluoro-3,4-dihydroquinolin-1(2H)-yl)piperidin-1-yl)methyl)-1-oxoisoindolin-2-yl)piperidine-2,6-dione] | A (0% ≤ substrate protein remaining % ≤ 80%) | A (0% ≤ substrate protein remaining % ≤ 80%) | A (0% ≤ substrate protein remaining % ≤ 80%) | A (0% ≤ substrate protein remaining % ≤ 80%) | A (0% ≤ substrate protein remaining % ≤ 80%) | A (0% ≤ substrate protein remaining % ≤ 80%) | 500 to 1000 nM | 10 to 50 nM | 500 to 1000 nM | 500 to 1000 nM | – | – | – | – | – | – | – | – |
| O=C1CCC(N2Cc3cc(CN4CCN(c5nc(N6CCOCC6)nc6c5SCC6)CC4)ccc3C2=O)C(=O)N1 (stereo not drawn) [GT-04710, 3-(5-((4-(2-morpholino-6,7-dihydrothieno[3,2-d]pyrimidin-4-yl)piperazin-1-yl)methyl)-1-oxoisoindolin-2-yl)piperidine-2,6-dione] | B (80%< substrate protein remaining %≤ 100%) | B (80%< substrate protein remaining %≤ 100%) | B (80%< substrate protein remaining %≤ 100%) | A (0% ≤ substrate protein remaining % ≤ 80%) | A (0% ≤ substrate protein remaining % ≤ 80%) | A (0% ≤ substrate protein remaining % ≤ 80%) | < 500 nM | 500 to 1000 nM | – | – | – | – | – | – | – | – | – | – |
| O=C1CCC(N2Cc3cc(CN4C5CC4CN(c4cccc(Cl)c4Cl)C5)ccc3C2=O)C(=O)N1 (stereo not drawn) [GT-04712, 3-(5-((3-(2,3-dichlorophenyl)-3,6-diazabicyclo[3.1.1]heptan-6-yl)methyl)-1-oxoisoindolin-2-yl)piperidine-2,6-dione] | B (80%< substrate protein remaining %≤ 100%) | B (80%< substrate protein remaining %≤ 100%) | B (80%< substrate protein remaining %≤ 100%) | A (0% ≤ substrate protein remaining % ≤ 80%) | A (0% ≤ substrate protein remaining % ≤ 80%) | A (0% ≤ substrate protein remaining % ≤ 80%) | 500 to 1000 nM | 10 to 50 nM | 100 to 500 nM | 50 to 100 nM | – | – | – | – | – | – | – | – |
| O=C1CCC(N2Cc3cc(CN4CC(n5cnc6cc(F)ccc65)C4)ccc3C2=O)C(=O)N1 (stereo not drawn) [GT-04716, 3-(5-((3-(5-fluoro-1H-benzo[d]imidazol-1-yl)azetidin-1-yl)methyl)-1-oxoisoindolin-2-yl)piperidine-2,6-dione] | B (80%< substrate protein remaining %≤ 100%) | B (80%< substrate protein remaining %≤ 100%) | B (80%< substrate protein remaining %≤ 100%) | B (80%< substrate protein remaining %≤ 100%) | B (80%< substrate protein remaining %≤ 100%) | A (0% ≤ substrate protein remaining % ≤ 80%) | 500 to 1000 nM | 100 to 500 nM | – | – | – | – | – | – | – | – | – | – |
| Cc1nc(C2CCN(Cc3ccc4c(c3)CN(C3CCC(=O)NC3=O)C4=O)CC2)c2ccsc2n1 (stereo not drawn) [GT-04726, 3-(5-((4-(2-methylthieno[2,3-d]pyrimidin-4-yl)piperidin-1-yl)methyl)-1-oxoisoindolin-2-yl)piperidine-2,6-dione] | A (0% ≤ substrate protein remaining % ≤ 80%) | A (0% ≤ substrate protein remaining % ≤ 80%) | A (0% ≤ substrate protein remaining % ≤ 80%) | A (0% ≤ substrate protein remaining % ≤ 80%) | A (0% ≤ substrate protein remaining % ≤ 80%) | A (0% ≤ substrate protein remaining % ≤ 80%) | 500 to 1000 nM | 10 to 50 nM | – | – | – | – | – | – | – | – | – | – |
| Cc1ccsc1C1=CCN(Cc2ccc3c(c2)C(=O)N(C2CCC(=O)NC2=O)C3=O)CC1 (stereo not drawn) [GT-04732, 2-(2,6-dioxopiperidin-3-yl)-5-((4-(3-methylthiophen-2-yl)-3,6-dihydropyridin-1(2H)-yl)methyl)isoindoline-1,3-dione] | A (0% ≤ substrate protein remaining % ≤ 80%) | B (80%< substrate protein remaining %≤ 100%) | B (80%< substrate protein remaining %≤ 100%) | B (80%< substrate protein remaining %≤ 100%) | A (0% ≤ substrate protein remaining % ≤ 80%) | A (0% ≤ substrate protein remaining % ≤ 80%) | 500 to 1000 nM | 50 to 100 nM | – | 500 to 1000 nM | – | – | – | – | – | – | – | – |
| O=C1CCC(N2C(=O)c3ccc(CN4CCN(c5ncccc5Cl)CC4)cc3C2=O)C(=O)N1 (stereo not drawn) [GT-07843, 5-((4-(3-chloropyridin-2-yl)piperazin-1-yl)methyl)-2-(2,6-dioxopiperidin-3-yl)isoindoline-1,3-dione] | – | – | – | – | – | – | – | – | – | – | 30 to 40% | 30 to 40% | – | – | – | – | – | – |
| O=C1CCC(N2C(=O)c3ccc(CN4CCN(c5nc(N6CCCC6)nc6c5SCC6)CC4)cc3C2=O)C(=O)N1 (stereo not drawn) [GT-08004, 2-(2,6-dioxopiperidin-3-yl)-5-((4-(2-(pyrrolidin-1-yl)-6,7-dihydrothieno[3,2-d]pyrimidin-4-yl)piperazin-1-yl)methyl)isoindoline-1,3-dione] | – | – | – | – | – | – | – | – | – | – | 30 to 40% | 40 to 50% | B (80%< substrate protein remaining %≤ 100%) | A (0% ≤ substrate protein remaining % ≤ 80%) | A (0% ≤ substrate protein remaining % ≤ 80%) | A (0% ≤ substrate protein remaining % ≤ 80%) | B (80%< substrate protein remaining %≤ 100%) | A (0% ≤ substrate protein remaining % ≤ 80%) |
| O=C1CCC(N2C(=O)c3ccc(CN4CCN(c5nc(N6CCC6)nc6c5SCC6)CC4)cc3C2=O)C(=O)N1 (stereo not drawn) [GT-08005, 5-((4-(2-(azetidin-1-yl)-6,7-dihydrothieno[3,2-d]pyrimidin-4-yl)piperazin-1-yl)methyl)-2-(2,6-dioxopiperidin-3-yl)isoindoline-1,3-dione] | – | – | – | – | – | – | – | – | – | – | 20 to 30% | 30 to 40% | B (80%< substrate protein remaining %≤ 100%) | A (0% ≤ substrate protein remaining % ≤ 80%) | A (0% ≤ substrate protein remaining % ≤ 80%) | A (0% ≤ substrate protein remaining % ≤ 80%) | B (80%< substrate protein remaining %≤ 100%) | B (80%< substrate protein remaining %≤ 100%) |

Reference: patent publication EP4745137A1 (Gluetacs Therapeutics (Shanghai) Co., Ltd., priority 2023, dated 2025)
